Reference: PMC12408683 (Archives of Toxicology, 2025)
Read-outs that look alike come from different tables or passages of the source.

Experiments:
[1] = tested on: HepG2 cells; conditions: 24 h
Procedure: γH2AX and p53 levels were assessed by SDS-PAGE and western blotting as reported (Fahrer et al. [2013]). To this end, 5 × 10^5 cells were seeded in 3.5-cm dishes to adhere overnight. […] Proteins were separated by SDS-PAGE followed by the transfer onto a nitrocellulose membrane using the wet blot method. The successful transfer was confirmed by Ponceau S staining of the membrane before blocking with 5% non-fat dry milk in Tris-buffered saline with Tween-20 (MP-TBS-T). Subsequently, the membrane was incubated with the respective primary antibodies overnight at 4 °C. The membranes were washed three times for 5 min with TBS-T before incubating with the respective secondary antibody coupled with horseradish peroxidase. The detection was carried out using the Western Lightning Plus-ECL reagent (Perkin Elmer, Waltham MA, USA) with the c300 chemiluminescence imager (Azure Biosystems, Dublin CA, USA). The used primary and secondary antibodies are detailed in supplementary Table S3.

[2] = tested on: primary rat hepatocytes (PRH); conditions: read-out: EC50 (cell viability); 24 h
Procedure: The cell viability was calculated relative to the negative control (set to 100%).

[3] = tested on: HepG2 cells; conditions: for MN formation, increase (flow cytometry): 24 h + 72 h recovery
Procedure: DMSO served as solvent control, while MMC was used as a positive control. […] Following the recovery time, the cells were detached, harvested by centrifugation (300 g, 5 min), and washed with PBS. […] The fluorescent dye was then activated by photolysis (60 W lightbulb, 30 cm spacing) for 20 min before addition of 9 mL PBS to remove unbound dye. […] 1.5 × 10^4 cells were analysed using the BD FACSDiva software (BD Biosciences, Heidelberg, Germany).
As benchmark response (BMR) for all concentration–response curves (adducts, micronuclei), a 2.0-fold increase vs. solvent control was used (BMC100, critical effect size = 1).

[4] = tested on: HepaRG cells and PRH; set-up: method as in Yang et al. 2020; conditions: 50 µM ES or 1′OH-ES; ref Yang et al. 2020; cited from earlier work
[5] = tested on: HepG2 cells; experiment: Resazurin reduction assay (cytotoxicity) in HepG2 cells; conditions: for EC50: read-out: EC50 (cell viability)
[6] = tested on: HepG2-CYP1A2 cells; conditions: ES 24 h + 72 h recovery; not statistically significant; concentration not given
Procedure: Following the recovery time, the cells were detached, harvested by centrifugation (300 g, 5 min), and washed with PBS. […] The fluorescent dye was then activated by photolysis (60 W lightbulb, 30 cm spacing) for 20 min before addition of 9 mL PBS to remove unbound dye. […] 1.5 × 10^4 cells were analysed using the BD FACSDiva software (BD Biosciences, Heidelberg, Germany). A schematic overview of the gating strategy is provided in the supporting information, Fig. 3.

[7] = tested on: parental HepG2 cells; set-up: method as in Yang et al. 2020; conditions: ref Yang et al. 2020; cited from earlier work
[8] = tested on: mice; set-up: method as in Suzuki et al. 2012b; conditions: up to 300 mg/kg bw and day over 13 weeks; ref Suzuki et al. 2012b; cited from earlier work
[9] = tested on: male F344 gpt delta rats; set-up: method as in Suzuki et al. 2012a; conditions: top dose 200 mg ES/kg bw for 4 weeks; ref Suzuki et al. 2012a; cited from earlier work
[10] = tested on: female gpt delta mice; set-up: method as in Suzuki et al. 2012b; conditions: ref Suzuki et al. 2012b; cited from earlier work
[11] = endpoint MN (FCM), BMR 2.0-fold increase, 90% CI

C=CC(O)c1ccc(OC)cc1 (stereo not shown) [1′OH-ES, 1′-hydroxyestragole]
γH2AX increase ([1]; 5 µM 1′OH-ES): 2.2 fold | p53 induction ([1]; 50 µM 1′OH-ES): sevenfold | γH2AX induction ([1]; 50 µM 1′OH-ES): 4.8 fold | EC50 [2]: 23 µM | MN formation, increase (flow cytometry) ([3]; 25 µM 1′OH-ES): twofold | MN formation, increase (flow cytometry) ([3]; 50 µM 1′OH-ES): 4.6 fold | concentrations at which clastogenicity was observed ([3]; CBMN and MN flow assay): ≥ 25 µM | BMC100 ([3]; endpoint MN (FCM), BMR 2.0-fold increase): 29.8 µM | BMCL [3, 11]: 21.1 µM | BMCU [3, 11]: 37.6 µM | E3′-N^2-dG levels vs ES [4]: 33–40 fold | cell viability ([5]; 50 µM 1′OH-ES, 24 h treatment + 72 h recovery): above 70% | EC50 ([5]; 24 h): 43 µM | EC50 ([5]; 72 h): 27 µM

C=CCc1ccc(OC)cc1 [ES, estragole]
MN formation, increase vs. solvent control (flow cytometry) [6]: 1.6 fold | DNA adducts [7]: failed to cause DNA adducts | clastogenicity [8]: clastogenicity was not detected | mutagenicity, increase vs. control [9]: twofold | dose with significant increase in mutation frequency [10]: 75 mg/kg bw
